The text below walks through data of paper PMC8619202, “Optimization of Microwave-Assisted Green Method for Enhanced Solubilization of Water-Soluble Curcuminoids Prepared Using Steviol Glycosides” (Foods, 2021).

A short description of data set [1]: Storage stability of curcuminoids solubilized in steviol glycoside solutions, HPLC. The following applies: for stability of solubilized curcuminoids at room temperature: 10% (w/v) SG, protected from light, 24 h. The procedure: (§1) In order to evaluate the stability in 10% (w/v) SGs, the water-soluble curcuminoids were analyzed by HPLC for 1 month. […] In order to achieve better solubility, transglycosylation is regarded as an important procedural phenomenon that leads to structural modifications and derivatizations that result in enhanced biological activities and improved solubility. Moreover, heating in the case of microwave irradiation is usually dependent on the nature of the sample, the solvent employed, and the irradiation power level mediated through the ionic conduction and dipole rotation (also known as dipole polarization) of the microwaves. In the absence of ions, water dipoles are found in the free form and may experience dipole rotation due to microwave radiation-induced oscillation.

The conditions of data set [2]: cited from earlier work; for solubility in dimethyl sulfoxide / solubility in ethanol / solubility in water: from C. longa.
A short description of data set [3]: Solubility of curcuminoids in the presence of steviol glycosides, with or without microwave or other physical treatment, HPLC. To be noted: steviol glycoside 10% w/v; for Bisdemethoxycurcumin (mg/mL) NT / Curcumin (mg/mL) NT / Demethoxycurcumin (mg/mL) NT / Total Curcuminoids (mg/mL) NT: not treated by microwave. The procedure:
The effect of water concentration to extract curcuminoids was investigated. […] The mixture in an ethanol solution was vortexed for 15 min and centrifuged at 12,000× g for 10 min (SupraR30, W × D × H: 710 × 1000 × 1260 mm, Hanil Scientific Inc., Gimp, Korea). The supernatant was transferred to a new tube and ethanol was evaporated. The resulting powders were dissolved in water, centrifuged at 12,000× g for 10 min, and filtered through a 0.20 μm membrane (Agilent, Santa Clara, CA, USA).
Weighing of the appropriate amounts of each steviol glycoside and curcuminoids was carried out, and they were put into 50 mL glass bottles. Furthermore, the suspension of curcuminoid–SG was subjected to heating by exposure to microwave irradiation in a microwave-assisted extractor (CEM, Matthews, NC, USA) at 100 W and 25 °C. Prior to conducting chromatographic analyses as per the reported method of Nguyen et al., the filtration of all samples was performed using a 0.45 μm nylon syringe filter (Millipore, Billerica, MA, USA). The quantitative concentration determination of curcuminoids and SGs was performed by employing series of standard solutions of curcuminoid in methanol with concentrations ranging from 0.15 to 10 μg/mL according to the reported method. Chromatographic separation for quantitative analysis was carried out using an Agilent 1200 liquid chromatographic system (Agilent Technologies, Palo Alto, CA, USA) equipped with an autosampler, quaternary HPLC pump, degasser, ZORBAX SB-C18 column (5 μm, 4.6 × 150 mm), and UV detector (VWD) set at 210 and 260 nm. The mobile phase for HPLC consisted of solvent A, which was 0.1% trifluoroacetic acid in water, and solvent B, which was 0.1% trifluoroacetic acid in acetonitrile. The solvent gradient was as follows (relative to solvent A): 0 min, 80% A; 10 min, 75% B; 20 min, 65% B; 30 min, 50% B; 40 min, 40%; 50 min, 30%; 60 min, 0% B; 0 min, 20%; 10 min, 25% B; 20 min, 35% B; 30 min, 50%; 40 min, 60%; 50 min, 70%; and 60 min, 100%. The column temperature was maintained at 30 °C with an injection volume of 10 μL at a flow rate of 1.0 mL/min.
as §1

Values after ≈ are worked out from the molar mass of the structure shown.

Regarding `C=C1C[C@@]23CC[C@H]4[C@@](C)(CCC[C@@]4(C)C(=O)O[C@@H]4O[C@H](CO)[C@@H](O)[C@H](O)[C@H]4O)[C@@H]2CC[C@]1(O[C@@H]1O[C@H](CO)[C@@H](O)[C@H](O)[C@H]1O[C@@H]1O[C@H](CO)[C@@H](O)[C@H](O)[C@H]1O)C3` [ST, stevioside], in data set [1], the “stability of solubilized curcuminoids at room temperature” value was “highly stable”.

With `C=C1C[C@@]23CC[C@H]4[C@@](C)(CCC[C@@]4(C)C(=O)O[C@@H]4O[C@H](CO)[C@@H](O)[C@H](O)[C@H]4O)[C@@H]2CC[C@]1(O[C@@H]1O[C@H](CO)[C@@H](O)[C@H](O)[C@H]1O)C3` [R, rubusoside], in data set [1], the “stability of solubilized curcuminoids at room temperature” value is “highly stable” and the “stability of aqueous curcuminoid solutions on long-term storage” value was “did not exhibit good stability”. For the same molecule, the “solubility of curcumin in rubusoside aqueous solution” value in data set [2] (10% rubusoside aqueous solution (w/v)) is 600 to 2300 µg/mL.

For `O=C(/C=C/c1ccc(O)cc1)CC(=O)/C=C/c1ccc(O)cc1` [BDMC, bisdemethoxycurcumin], in data set [2], the “solubility in dimethyl sulfoxide” value was 25000 µg/mL (≈ 81.1 mM), the solubility in ethanol is 10000 µg/mL (≈ 32.4 mM) and the solubility in water is 11 µg/mL (≈ 0.0357 mM).

Consider `C=C1C[C@@]23CC[C@H]4[C@@](C)(CCC[C@@]4(C)C(=O)O)[C@@H]2CC[C@]1(O[C@@H]1O[C@H](CO)[C@@H](O)[C@H](O)[C@H]1O)C3` [SMG, steviol mono-glucoside], for which, in data set [3], the “Total Curcuminoids Ratio Microwave /NT (fold)” value is listed as 7.3 fold, the “Bisdemethoxycurcumin (mg/mL) NT” value was found to be 0.04 ± 0.01 mg/mL, the “Curcumin (mg/mL) NT” value was determined as 0.46 ± 0.1 mg/mL and the “Demethoxycurcumin (mg/mL) NT” value is 0.04 ± 0.01 mg/mL. In data set [3], the “Total Curcuminoids (mg/mL) NT” value is reported as 0.54 ± 0.1 mg/mL, the “Bisdemethoxycurcumin (mg/mL) Microwave” value came to 0.52 ± 0.1 mg/mL, the “Curcumin (mg/mL) Microwave” value worked out at 2.52 ± 0.15 mg/mL and the “Demethoxycurcumin (mg/mL) Microwave” value stood at 0.88 ± 0.1 mg/mL. For the same molecule, in data set [3], the “Total Curcuminoids (mg/mL) Microwave” value is given as 3.92 ± 0.5 mg/mL.

As for `COc1cc(/C=C/C(O)=C/C(=O)/C=C/c2ccc(O)cc2)ccc1O` [DMC, demethoxycurcumin], in data set [2], the “solubility in dimethyl sulfoxide” value is 25000 µg/mL (≈ 73.9 mM), the solubility in ethanol is 10000 µg/mL (≈ 29.6 mM) and the solubility in water is 11 µg/mL (≈ 0.0325 mM).

Take α-glucosyl stevioside [STG]: in data set [3], the “Total Curcuminoids Ratio Microwave /NT (fold)” value came out at 7.0 fold, the “Bisdemethoxycurcumin (mg/mL) NT” value is recorded as 0.04 ± 0.01 mg/mL, the “Curcumin (mg/mL) NT” value is given as 0.51 ± 0.2 mg/mL and the “Demethoxycurcumin (mg/mL) NT” value worked out at 0.05 ± 0.01 mg/mL. In data set [3], the “Total Curcuminoids (mg/mL) NT” value is 0.61 ± 0.1 mg/mL, the “Bisdemethoxycurcumin (mg/mL) Microwave” value is given as 0.69 ± 0.2 mg/mL, the “Curcumin (mg/mL) Microwave” value was determined as 2.72 ± 0.3 mg/mL and the “Demethoxycurcumin (mg/mL) Microwave” value was 0.83 ± 0.1 mg/mL. Also, the “Total Curcuminoids (mg/mL) Microwave” value in data set [3] is on record as 4.24 ± 0.6 mg/mL. Moreover, in data set [1], the “stability of aqueous curcuminoid solutions on long-term storage” value is recorded as “very good stability”.

For the molecule `COc1cc(/C=C/C(=O)CC(=O)/C=C/c2ccc(O)c(OC)c2)ccc1O` [Curcumin, curcumin], in data set [2], the “solubility in dimethyl sulfoxide” value was 25000 µg/mL (≈ 67.9 mM), the solubility in ethanol was 10000 µg/mL (≈ 27.1 mM) and the solubility in water was 11 µg/mL (≈ 0.0299 mM).
